# Results as given in ChEMBL document CHEMBL3301451, “MMV Malaria Box gametocyte functional viability assay screening”.
# Columns and labels:
# Assay type in all cases: functional
# Set-up in all cases: concentration or dose not given beside the values
# [1] = system: Plasmodium berghei; experiment: MMV: P. berghei-infected blood was withdrawn from mice by cardiac pucture before being immediately added to ookinete culture medium containing test compounds. 26 hr later, GFP-positive ookinetes were identified and counted by automated microscopy. All compounds were tested in 4 independent experiments and data presented here is the mean.
# [2] = system: Plasmodium falciparum; experiment: MMV: P. falciparum NF54 functionally mature Stage V gametocytes were incubated for 24 hr in the presence of the test compounds. Gamete formation was then triggered by addition of 2uM xantheurenic acid and temperature decrease to ~20C. Female gamete formation was recorded 24 hr later by automated microscopy detection of surface labelling of female gametes with a Cy3-conjugated antibody reactive to Pfs25. All compounds were tested in 4 independent experiments and data presented here is the mean.; details: NF54, 24 h
# [3] = system: Plasmodium falciparum; experiment: MMV: P. falciparum NF54 functionally mature Stage V gametocytes were incubated for 24 hr in the presence of the test compounds. Gamete formation was then triggered by addition of 2uM xantheurenic acid and temperature decrease to ~20C. Male gamete exflagellation was recorded and analysed by automated microscopy after 20 min. All compounds were tested in 4 independent experiments and data presented here is the mean.
SMILES,inhibition [1] [%],inhibition [2] [%],inhibition [3] [%]
Cc1ccc(F)cc1NC(=O)c1cc(Cl)ccc1Nc1ccccc1,6.256,-12.6,43.2
CCOC(=O)C1(Cc2ccccc2)CCN(Cc2cccc(OC)c2O)CC1,-6.801,-9.84,-10.2
CCOC(=O)c1c(NC(=O)c2ccccc2)sc2c(O)c(CN(CC)CC)ccc12,-23.17,-19.6,51
O=C(NCC(c1ccsc1)N1CCCCCC1)c1ccc(C(F)(F)F)cc1 (configuration not stated),-31.95,-37.4,-14.6
Cc1cc(N2CCN(C3CCCC3)CC2)n2c(nc3ccccc32)c1C#N,-5.169,-12.2,6.61
CC(C)CNC(=O)c1c(N)n(CCc2ccccc2F)c2nc3ccccc3nc12,-6.274,-24.2,24.1
CC(C)(C)c1ccc2c(c1)CN(Cc1ccc(Cl)cc1)CO2,3.358,6.43,-12.2
COc1ccc2nc(N)nc(C)c2c1,-8.497,6.91,45.7
COc1ccc(-n2ccnc2SCC(=O)Nc2cc(C)ccc2C)c(OC)c1,-11.96,-9.31,12
FC(F)(F)c1cccc(Nc2nc(-c3ccccc3)nc3ncccc23)c1,-9.471,8.9,10.8
CC(Oc1ccc(NC(=O)c2cccs2)cc1)C(=O)c1ccc(Cl)cc1 (configuration not stated),73.22,-14,25.6
CC(O)(c1ccc(Cl)cc1)C(CN1CCCCC1)c1ccccc1.Cl (configuration not stated),-9.711,-1.41,-5.37
CCOc1ccc(CCNC(=O)c2cccs2)cc1OCC,8.759,2.16,22
CN1CCN(c2ncnc3c2[nH]c2ccc(Cl)cc23)CC1,-3.248,6.75,-2.21
O=C1c2ccccc2-c2nnc(-c3ccc(Br)cc3)cc21,9.656,-19.6,19.4
CCOC(=O)c1cnc2ccc(Cl)cc2c1NCCCN(C)C,-2.955,-11.1,-9.15
O=C(O)C(=O)O.Oc1ccc(Br)cc1CN1CCN(Cc2cccc(F)c2)CC1,-11.78,-17.6,27.2
Clc1ccc2[nH]c3c(NCCCN4CCOCC4)ncnc3c2c1,-16.54,-15.9,21.6
O=C(Nc1nc(-c2ccccn2)cs1)c1ccccc1Br,2.456,-22.2,-29.6
CC(C)(C)c1ccc(O)c(CNC2CCCCC2)c1,-33.89,3.67,-29.4
O=C(Nc1cccc(-c2nc3ccccc3[nH]2)c1)c1cccc(NC(=O)c2ccco2)c1,-15.24,-35.1,31.6
CN1CCN(c2nc(Nc3ccc(O)cc3)nc3ccccc23)CC1.Cl,-15.95,-25.1,2

SMILES,inhibition [1] [%],inhibition [2] [%],inhibition [3] [%]
CCOc1cc(CNC(C)C(O)c2ccccc2)cc(Cl)c1OCC (configuration not stated),-7.956,-44.5,11.6
CCOc1cc(Cl)c(C(C)NC(=O)c2cccc(OC)c2)cc1OCC (configuration not stated),-8.297,-14.9,3.61
COc1ccc(CNC(=O)c2cc3c(=O)n4ccccc4nc3n(CCc3ccccc3)c2=N)cc1,-21.18,0.565,-25
COc1ccc(Br)cc1C1Nc2ccc3ccccc3c2C2=C1C(=O)CC(c1ccccc1)C2 (configuration not stated),-18.54,-13.2,9.97
COc1ccccc1CNC(=O)CCn1c(=O)[nH]c2ccsc2c1=O,-0.4809,-26.3,22.3
O=C(Nc1ccc(N2CCCCC2)c(Cl)c1)c1ccc(Br)o1,4.656,-35.3,41.2
O=C(O)C(=O)O.Oc1ccccc1CN1CCN(C(c2ccccc2)c2ccccc2)CC1,19.05,-11.9,23.5
CC1CCCCN1CCCNC(=O)c1ccc2c(c1)sc1nc(-c3ccc(F)cc3)cn12 (configuration not stated),0.9156,-12.6,-15.9
O=C(NC1CCCCC1)C(c1cccs1)N(CCc1ccccc1)C(=O)c1ccco1 (configuration not stated),-4.107,-15.1,6.52
CCCCc1c(CCC)c(=N)c2ccccc2n1C.I,-7.021,-25.6,-57
Cc1cc(Nc2ccc(OCc3ccccc3)cc2)nc2cc(O)ccc12,-6.891,6.66,32.7
c1ccc2cc3c(Nc4ccc(N5CCOCC5)cc4)ccnc3cc2c1,12.53,-0.0777,13.2
COc1ccc(-c2nonc2NC(=O)c2cccc(C)c2)cc1OC,-9.338,3.1,31.3
COc1cc2c(cc1OC)C1=NNC(=O)C1=NC(C)(C)C2,-11.77,-26.2,52.9
CCOc1ccc(C2N(C)c3ccccc3N2C)cc1,-11.42,9.89,-6.18
CCOc1c(Cl)cc(CNCC(O)c2ccccc2)cc1OC (configuration not stated),-11.86,-14.1,-11.9
Cc1c(C)n(Cc2ccc(F)cc2)c2ccc(C(=O)NCc3ccco3)cc12,17.74,-40.2,49.7
CCN(CC)CCn1c(=N)n(CC(O)c2ccc(Cl)c(Cl)c2)c2ccccc21.Cl (configuration not stated),-13,7.92,-66.5
O=C(NCc1ccco1)C1CCN(S(=O)(=O)c2ccc(Cl)cc2)CC1,33.84,-26.9,46.2
Nc1ccc(-c2nc3cc(Oc4ccc(Oc5ccc6[nH]c(-c7ccc(N)cc7)nc6c5)cc4)ccc3[nH]2)cc1,13.14,-54.1,3.94
COCCN(C(=O)Cc1cccs1)C(C(=O)NCc1ccc(OC)cc1)c1ccc(C(C)C)cc1 (configuration not stated),0.1558,-5.87,9.73
CCOc1cc2c(cc1OCC)C(c1cc(C)c(O)c(C)c1)NCC2.Cl (configuration not stated),-16.67,20.2,-7.71

SMILES,inhibition [1] [%],inhibition [2] [%],inhibition [3] [%]
COc1cccc(Cn2c(Oc3ccccc3)nc3c2c(=O)n(C)c(=O)n3C)c1,-11.71,1.84,35.5
Cc1ccc(Cl)cc1N1CCN(CCCNC(=O)C2CCN(c3nc4ccccc4[nH]3)CC2)CC1,-9.077,-57.2,5
COc1ccc(C(=O)Nc2nonc2-c2ccc(OC)c(OC)c2)cc1Cl,1.319,-18.2,36.3
Cc1sc(NC(=O)c2ccco2)c(C(c2cccnc2)N2CCC(Cc3ccccc3)CC2)c1C (configuration not stated),-7.977,-26,9.35
COc1ccccc1CNC(=O)C1c2ccccc2C(=O)N(CC(C)C)C1c1cccs1 (configuration not stated),-12.03,-15.9,8.38
OC(CNC1CCCC1)Cn1c2ccccc2c2ccccc21 (configuration not stated),-16.75,12.4,-4.27
O=C(NC1CCN(Cc2ccccc2)CC1)c1cc2nc(-c3ccc(Cl)s3)cc(C(F)(F)F)n2n1,28.86,-40.5,-4.49
Cc1ccc(-c2cc(C(=O)Nc3ccc(S(=O)(=O)N4CCCCC4)cc3)[nH]n2)c(O)c1,-10.93,-11.2,7.64
CCOc1cc(Br)c(C(C)NC(=O)c2cccc(OC)c2)cc1OCC (configuration not stated),-20.12,-28.3,10.3
COCCn1c(C)nc2ccccc2c1=O,-11.98,-15.4,22.3
CCOC(=O)c1cnc2ccc(OC)cc2c1Nc1ccc(N2CCN(C)CC2)cc1,-18.25,-40,-13.9
CCOc1ccc(-n2cc(-c3ccccc3)c3c(SCc4cc(C)ccc4C)ncnc32)cc1,-4.1,-11.5,13
O=C(NNc1cc(N2CCCC2)nc(N2CCCC2)n1)c1ccccc1,26.51,-28.5,30.4
CCCCCCn1c(=N)n(CC(O)COc2cccc(C)c2)c2ccccc21.Cl (configuration not stated),1.158,-17.6,-52.7
FC(F)(F)c1ccc(Nc2nnnc3ccccc23)cc1,36.6,-30.5,33.7
CCOC(=O)c1c(C)n(-c2ccc(Cl)cc2)c2ccc(OC(=O)C=Cc3ccccc3)cc12,-22.23,-9.97,18.8
CCN(CC)CCNc1ncnc2c1[nH]c1ccc(Cl)cc12,-19.34,-27.6,-43.5
CCOC(=O)C1=C(c2ccccc2)N=c2sc(=Cc3cc(C)n(-c4ccc(F)cc4)c3C)c(=O)n2C1c1cccc(OC)c1OC (configuration not stated),-41.23,-0.952,17.4
CCOc1ccc(N2C(N)=NC(N)=NC2(C)C)cc1.Cl,-12.23,-42,66.8
CCN(CC)CCNc1ccnc2cc3ccccc3cc12.O=P(O)(O)O,2.138,-24,9.43
